Measurements: US20160184274A1, “Methods for inhibiting mesenchymal phenotype after epithelial-to-mesenchymal transition” (Fibrostatin, S.L., priority 2014, published 2016)

Tests used:
[1] = target: T1, trimeric intracellular GPBP (Homo sapiens, UniProt Q9Y5P4); assay: In vitro phosphorylation assay with trimeric intracellular GPBP; assay type: biochemical; conditions: T12 50 μM; autophosphorylation, γ[32P]ATP; FIG. 2
T1 construct: made in house; host or cells: Sf9 insect cells (baculovirus), purified from cell lysates
T1 sequence (Q9Y5P4 1-624): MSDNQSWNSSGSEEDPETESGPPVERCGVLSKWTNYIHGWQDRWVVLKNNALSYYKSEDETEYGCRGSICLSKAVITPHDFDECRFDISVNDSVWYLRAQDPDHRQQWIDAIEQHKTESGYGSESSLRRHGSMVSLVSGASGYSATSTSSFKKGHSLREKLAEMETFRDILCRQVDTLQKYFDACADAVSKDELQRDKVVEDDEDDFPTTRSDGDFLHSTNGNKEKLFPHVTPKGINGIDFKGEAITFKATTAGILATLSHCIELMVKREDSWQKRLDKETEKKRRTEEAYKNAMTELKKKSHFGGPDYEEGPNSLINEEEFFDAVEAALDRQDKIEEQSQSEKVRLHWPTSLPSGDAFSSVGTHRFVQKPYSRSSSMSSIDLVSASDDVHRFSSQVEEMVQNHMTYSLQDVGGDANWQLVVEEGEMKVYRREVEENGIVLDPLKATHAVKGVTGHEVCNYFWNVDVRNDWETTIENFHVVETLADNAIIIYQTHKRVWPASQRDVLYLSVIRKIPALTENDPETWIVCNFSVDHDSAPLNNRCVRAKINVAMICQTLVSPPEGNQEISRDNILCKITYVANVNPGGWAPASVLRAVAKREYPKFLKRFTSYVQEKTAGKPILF
Protocol: FIG. 2. […] Multimeric extracellular and trimeric intracellular GPBP were purified by affinity chromatography and subsequent gel filtration chromatography, and used for in vitro phosphorylation assays in absence (−) or presence (+) of T12 (50 μM). Reactions were subjected to SDS-PAGE, Western blot onto PVDF membrane and autoradiography, and further protein detected with anti-FLAG primary antibodies. Autoradiography and anti-FLAG® bands were quantified with WCIF IMAGEJ® software, and the normalized kinase activity estimated. Shown are normalized kinase activities. […] Samples were analyzed in triplicate and the data represents the Mean (±SEM) of three independent assays.
FLAG®-tagged GPBP was expressed using Bac-to-Bac® Baculovirus Expression System. […] Finally, purified protein was quantified with Bio-Rad Protein Assay and stored at −20° C. […]
Typically, about 270 ng of purified FLAG®-GPBP protein, either extracellular multimer or intracellular trimer, were incubated in presence or absence of T12 […] in a kinase assay buffer containing 25 mM disodium β-glycerophosphate, 8 mM MgCl2, 0.5 mM EDTA, 0.5 mM EGTA, 1 mM DTT, 5 mM MnCl2 during 10 min at 37° C. […] Then reactions were stopped with SDS-PAGE loading buffer and heat (95° C., 3 min) and analyzed by SDS-PAGE, electro-transference to PVDF membrane (Merck Millipore) and autoradiography. […]

[2] = tested on: A549 tumors displaying mesenchymal phenotype; assay: A549 xenograft, tumors with mesenchymal phenotype; assay type: in vivo; conditions: T12 20 mg/kg/day in drinking water; athymic mice; FIG. 10A
Text: FIG. 10. […] Control, n=43; T12, n=18.

[3] = tested on: patient-derived cisplatin-resistant mesenchymal NSCLC cells; conditions: WO/2014/006020; cited from earlier work

normalized kinase activity of GPBP [1]: not intracellular GPBP trimers
SMILES: COc1ccc(-c2ccc(-c3cccc(C)c3)c(C)c2)c(CCC(=O)O)c1 [T12, 3-[4″-methoxy-3,2′-dimethyl-(1,1′;4′,1″)terphenyl-2″-yl] propionic acid]
tumor growth (relative tumor volume) [2]: very effective slowing the growth
toxicity [3]: high-toxicity
